Measured values reported in ChEMBL document CHEMBL1255477, “In vitro properties of BAL30072, a novel siderophore sulfactam with activity against multiresistant gram-negative bacilli” (Antimicrob Agents Chemother, 2010).
≈ marks a conversion by molar mass, not a printed value. Calls of active or inactive are those of the source. The rule behind the calls is not given here.

Legend:
Klebsiella pneumoniae [1] = assay: Antimicrobial activity against Klebsiella pneumoniae by broth dilution method; type: functional
[2] = tested on: Stenotrophomonas maltophilia; assay: Antimicrobial activity against Stenotrophomonas maltophilia by broth dilution method; type: functional
[3] = tested on: Stenotrophomonas maltophilia; assay: Antimicrobial activity against Stenotrophomonas maltophilia 1AC736 assessed as number of passages required for MIC to rise above 4 times original MIC; type: functional
Acinetobacter junii = assay: Antimicrobial activity against Acinetobacter junii 15218 assessed as number of passages required for MIC to rise above 4 times original MIC; type: functional
Providencia rettgeri [4] = assay: Antimicrobial activity against Providencia rettgeri by broth dilution method; type: functional
Klebsiella oxytoca [5] = assay: Antimicrobial activity against Klebsiella oxytoca by broth dilution method; type: functional
Proteus penneri = assay: Antimicrobial activity against Proteus penneri by broth dilution method; type: functional
Acinetobacter baumannii [6] = assay: Antimicrobial activity against Acinetobacter baumannii HPA74510 assessed as number of passages required for MIC to rise above 4 times original MIC; type: functional
Providencia stuartii = assay: Antimicrobial activity against Providencia stuartii by broth dilution method; type: functional
Pseudomonas aeruginosa [7] = assay: Antimicrobial activity against Pseudomonas aeruginosa 527 assessed as number of passages required for MIC to rise above 4 times original MIC; type: functional
Klebsiella aerogenes = assay: Antimicrobial activity against Enterobacter aerogenes by broth dilution method; type: functional
Pseudomonas aeruginosa [8] = assay: Antimicrobial activity against Pseudomonas aeruginosa BA assessed as number of passages required for MIC to rise above 4 times original MIC; type: functional
Acinetobacter sp. = assay: Antimicrobial activity against Acinetobacter sp. by broth dilution method; type: functional
Pseudomonas aeruginosa [9] = assay: Antimicrobial activity against Pseudomonas aeruginosa by broth dilution method; type: functional
Escherichia coli [10] = assay: Antimicrobial activity against Escherichia coli by broth dilution method; type: functional
Proteus vulgaris = assay: Antimicrobial activity against Proteus vulgaris by broth dilution method; type: functional
Klebsiella pneumoniae [11] = assay: Antimicrobial activity against Klebsiella pneumoniae 1338665 assessed as number of passages required for MIC to rise above 4 times original MIC; type: functional
Proteus mirabilis = assay: Antimicrobial activity against Proteus mirabilis by broth dilution method; type: functional
Enterobacteriaceae = assay: Antimicrobial activity against Enterobacteriaceae by broth dilution method; type: functional
Serratia marcescens [12] = assay: Antimicrobial activity against Serratia marcescens by broth dilution method; type: functional
Citrobacter freundii = assay: Antimicrobial activity against Citrobacter freundii by broth dilution method; type: functional
Burkholderia sp. = assay: Antimicrobial activity against Burkholderia sp. by broth dilution method; type: functional
[13] = Inhibition of Escherichia coli Penicillin-binding protein 1A
Klebsiella pneumoniae [14] = assay: Antimicrobial activity against Klebsiella pneumoniae YC harboring beta-lactamase KPC-2,TEM-1and SHV-2 by broth dilution method; type: functional
Acinetobacter baumannii [15] = assay: Antimicrobial activity against Acinetobacter baumannii HPA74510 harboring beta-lactamase IMP-4 by broth dilution method; type: functional
[16] = Inhibition of Beta-lactamase IMP1
[17] = Inhibition of Escherichia coli Penicillin-binding protein 2
[18] = Inhibition of Escherichia coli Penicillin-binding protein 1B
[19] = tested on: Stenotrophomonas maltophilia; assay: Antimicrobial activity against Stenotrophomonas maltophilia B715 harboring beta-lactamase L1and L2 by broth dilution method; type: functional
AmpC = AmpC (Escherichia coli, UniProt Q83TT7); assay: Inhibition of Escherichia coli ATCC 25922 AmpC
Chain of AmpC (Q83TT7 whole entry): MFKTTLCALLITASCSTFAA

Klebsiella pneumoniae [20] = assay: Antimicrobial activity against Klebsiella pneumoniae 1357E harboring beta-lactamase TEM-10 by broth dilution method; type: functional
Escherichia coli [21] = assay: Antimicrobial activity against Escherichia coli HB101 harboring beta-lactamase TEM-5 by broth dilution method; type: functional
[22] = Inhibition of beta-lactamase KPC-2
Klebsiella pneumoniae [23] = assay: Antimicrobial activity against Klebsiella pneumoniae CRE harboring beta-lactamase KPC-2 by broth dilution method; type: functional
Acinetobacter baumannii [24] = assay: Antimicrobial activity against Acinetobacter baumannii HPA 327009 harboring beta-lactamase OXA-25 by broth dilution method; type: functional
Klebsiella pneumoniae [25] = assay: Antimicrobial activity against Klebsiella pneumoniae 26768WU harboring beta-lactamase SHV-5 by broth dilution method; type: functional
Escherichia coli [26] = assay: Antimicrobial activity against Escherichia coli W3110 assessed as appearance of spheroplast at 64 ug/mL after 3 hrs by phase-contrast microscopy; type: functional, organism-based
Escherichia coli [27] = assay: Antimicrobial activity against Escherichia coli A harboring beta-lactamase CTX-M 15 by broth dilution method; type: functional
Escherichia coli [28] = assay: Antimicrobial activity against Escherichia coli CF102 harboring beta-lactamase TEM-3 by broth dilution method; type: functional
Pseudomonas aeruginosa [29] = assay: Antimicrobial activity against Pseudomonas aeruginosa HPA10586 harboring beta-lactamase VIM-1 by broth dilution method; type: functional
Serratia marcescens [30] = assay: Antimicrobial activity against Serratia marcescens S6 harboring beta-lactamase SME-1.AmpC by broth dilution method; type: functional
Escherichia coli [31] = assay: Antimicrobial activity against Escherichia coli nmcA harboring beta-lactamase NMCA by broth dilution method; type: functional
Providencia rettgeri [32] = assay: Antimicrobial activity against Providencia rettgeri J96 harboring beta-lactamase IMP-1 by broth dilution method; type: functional
Acinetobacter baumannii [33] = assay: Antimicrobial activity against Acinetobacter baumannii HPA 4737 harboring beta-lactamase OXA-26 by broth dilution method; type: functional
Acinetobacter baumannii [34] = assay: Antimicrobial activity against Acinetobacter baumannii HPA I-16 harboring beta-lactamase OXA-27 by broth dilution method; type: functional
Escherichia coli [35] = assay: Antimicrobial activity against Escherichia coli W3110 assessed as appearance of long filaments at 64 ug/mL after 3 hrs by phase-contrast microscopy; type: functional, organism-based
Escherichia coli [36] = assay: Antimicrobial activity against Escherichia coli K802N harboring beta-lactamase TEM-3 by broth dilution method; type: functional
Escherichia coli [37] = assay: Antimicrobial activity against Escherichia coli Libyien harboring beta-lactamase CMY-2 by broth dilution method; type: functional
Pseudomonas aeruginosa [38] = assay: microbe, parasite or virus in culture; conditions: 18S/H
Klebsiella oxytoca [39] = assay: Antimicrobial activity against Klebsiella oxytoca 1028E harboring beta-lactamase K1 by broth dilution method; type: functional
[40] = Inhibition of Escherichia coli Penicillin-binding protein 3

In the case of `CO/N=C(\C(=O)N[C@@H]1C(=O)N2C(C(=O)[O-])=C(C[N+]3(C)CCCC3)CS[C@H]12)c1csc(N)n1`, the MIC50 (Klebsiella pneumoniae [1]) is reported as 4 µg/mL (≈ 8.32 µM), the MIC90 (Klebsiella pneumoniae [1]) is reported as > 32 µg/mL and the MIC50 [2] is reported as 16 µg/mL (≈ 33.3 µM). The MIC90 [2] was > 32 µg/mL, the Activity [3] was 1 passages and the Activity (Acinetobacter junii) was 14 passages. The MIC50 (Providencia rettgeri [4]) was ≤ 0.06 µg/mL, the MIC90 (Providencia rettgeri [4]) was > 32 µg/mL and the MIC50 (Klebsiella oxytoca [5]) was 2 µg/mL (≈ 4.16 µM). It also gave an MIC90 (Klebsiella oxytoca [5]) of 4 µg/mL (≈ 8.32 µM), an MIC50 (Proteus penneri) of 0.125 µg/mL (≈ 0.26 µM) and an MIC90 (Proteus penneri) of 1 µg/mL (≈ 2.08 µM). For the same molecule, the Activity (Acinetobacter baumannii [6]) was “inactive”, the MIC50 (Providencia stuartii) was ≤ 0.06 µg/mL and the MIC90 (Providencia stuartii) was > 32 µg/mL. The Activity (Pseudomonas aeruginosa [7]) was 1 passages, the MIC90 (Klebsiella aerogenes) was 16 µg/mL (≈ 33.3 µM) and the Activity (Pseudomonas aeruginosa [8]) was 2 passages. For the same molecule, the MIC50 (Acinetobacter sp.) was 32 µg/mL (≈ 66.6 µM), the MIC90 (Acinetobacter sp.) was > 32 µg/mL and the MIC50 (Pseudomonas aeruginosa [9]) was 16 µg/mL (≈ 33.3 µM). The MIC90 (Pseudomonas aeruginosa [9]) was 32 µg/mL (≈ 66.6 µM), the MIC50 (Escherichia coli [10]) was 8 µg/mL (≈ 16.6 µM) and the MIC90 (Escherichia coli [10]) was > 32 µg/mL. The MIC50 (Proteus vulgaris) was 0.125 µg/mL (≈ 0.26 µM), the MIC90 (Proteus vulgaris) was 1 µg/mL (≈ 2.08 µM) and the Activity (Klebsiella pneumoniae [11]) was “inactive”. For the same molecule, the MIC50 (Proteus mirabilis) was 0.125 µg/mL (≈ 0.26 µM), the MIC90 (Proteus mirabilis) was 1 µg/mL (≈ 2.08 µM) and the MIC50 (Enterobacteriaceae) was 4 µg/mL (≈ 8.32 µM). The MIC50 (Serratia marcescens [12]) was 1 µg/mL (≈ 2.08 µM), the MIC90 (Serratia marcescens [12]) was 2 µg/mL (≈ 4.16 µM) and the MIC50 (Citrobacter freundii) was 1 µg/mL (≈ 2.08 µM). It also gave an MIC90 (Citrobacter freundii) of 4 µg/mL (≈ 8.32 µM), an MIC50 (Burkholderia sp.) of 8 µg/mL (≈ 16.6 µM) and an MIC90 (Burkholderia sp.) of 16 µg/mL (≈ 33.3 µM).
In the case of `C[C@H]1[C@H](NC(=O)/C(=N\OC(C)(C)C(=O)O)c2csc(N)n2)C(=O)N1S(=O)(=O)O` [AZTREONAM], the IC50 [13] is reported as > 50 µM, the MIC (Klebsiella pneumoniae [14]) is reported as > 32 µg/mL and the MIC (Acinetobacter baumannii [15]) is reported as 32 µg/mL (≈ 73.5 µM). The IC50 [16] was 1100 µM, the IC50 [17] was > 50 µM and the IC50 [18] was > 50 µM. For the same molecule, the MIC [19] was 32 µg/mL (≈ 73.5 µM), the IC50 (AmpC) was 0.06 µM and the MIC (Klebsiella pneumoniae [20]) was > 32 µg/mL. For the same molecule, the MIC (Escherichia coli [21]) was 32 µg/mL (≈ 73.5 µM), the IC50 [22] was > 2500 µM and the MIC50 (Klebsiella oxytoca [5]) was 16 µg/mL (≈ 36.7 µM). For the same molecule, the MIC90 (Klebsiella oxytoca [5]) was > 32 µg/mL, the MIC (Klebsiella pneumoniae [23]) was > 32 µg/mL and the MIC50 (Klebsiella aerogenes) was 4 µg/mL (≈ 9.19 µM). For the same molecule, the MIC90 (Klebsiella aerogenes) was > 32 µg/mL, the MIC (Acinetobacter baumannii [24]) was 16 µg/mL (≈ 36.7 µM) and the MIC50 (Acinetobacter sp.) was > 32 µg/mL. For the same molecule, the MIC90 (Acinetobacter sp.) was > 32 µg/mL, the MIC (Klebsiella pneumoniae [25]) was > 32 µg/mL and the Activity (Escherichia coli [26]) was “Active”. For the same molecule, the MIC (Escherichia coli [27]) was > 32 µg/mL, the MIC (Escherichia coli [28]) was 32 µg/mL (≈ 73.5 µM) and the MIC50 (Escherichia coli [10]) was > 32 µg/mL. For the same molecule, the MIC90 (Escherichia coli [10]) was > 32 µg/mL, the MIC (Pseudomonas aeruginosa [29]) was 16 µg/mL (≈ 36.7 µM) and the MIC (Serratia marcescens [30]) was 16 µg/mL (≈ 36.7 µM). The MIC (Escherichia coli [31]) was > 32 µg/mL, the MIC (Providencia rettgeri [32]) was 2 µg/mL (≈ 4.59 µM) and the MIC (Acinetobacter baumannii [33]) was 32 µg/mL (≈ 73.5 µM). For the same molecule, the MIC (Acinetobacter baumannii [34]) was 32 µg/mL (≈ 73.5 µM), the Activity (Escherichia coli [35]) was “Active” and the MIC (Escherichia coli [36]) was > 32 µg/mL. The MIC (Citrobacter freundii) was > 32 µg/mL, the MIC50 (Citrobacter freundii) was > 32 µg/mL and the MIC90 (Citrobacter freundii) was > 32 µg/mL. The MIC (Escherichia coli [37]) was 16 µg/mL (≈ 36.7 µM), the MIC (Pseudomonas aeruginosa [38]) was > 32 µg/mL and the MIC (Klebsiella oxytoca [39]) was > 32 µg/mL. For the same molecule, the IC50 [40] was 0.023 µM.
